# Assay results reported in article PMC5615103 (Toxicology Reports, 2017).
# “Also recorded” adds a separate entry of the source. Where two headings read alike, the source gives them in different places. Marks after values point to notes of the source that are not given here.
# How the values were obtained:
# [1] = average plasma maximum concentration; assay type: in vivo, humans; details: human
# [2] = human plasma, cited from earlier work
# [3] = cited from earlier work; for DILI classification (b) positive or negative for DILI: ref Xu et al. [33]; for iDILI/non-iDILI: selected by literature research, ref [30], [4], [8], [31], [32]; for DILI classification (a) LTKB class: Liver Toxicity Knowledge Base, ref Chen et al. [34]; for FDA status: FDA-approved labels, ref DailyMed
# [4] = WST-1 dose-response cytotoxicity in HepG2 monoculture; assay type: cell-based, human; details: human, HepG2 cells (monoculture)
# [5] = system: HepG2 cells; test: as above; assay type: cell-based, human; details: for EC80 (concentration at which 80% of the cells are still viable) / EC50: HepG2, 24 h; for EC80 (concentration at which 80% of the cells are still viable): WST-1; for EC50: Homo sapiens
# [6] = system: HepG2 cells; test: HepG2 viability; assay type: cell-based, human; details: 10 ng/mL TNF, 24 h; for synergistic effect (enhanced cellular death) on co-exposure with TNF: HepG2 monoculture, 32 μM TGZ/RGZ, 25 μM TVX/LVX, 125 μM DcL/ASS, 20 μM KC/FC; for change of the TNF-dependent synergistic effect by addition of THP-1 monocytes: co-culture HepG2 + THP-1 monocytes
# [7] = system: HepG2 cells; test: Morphology of HepG2 cell cultures; assay type: cell-based, human; details: 24 h; for alterations in the morphology of HepG2 cell cultures: 25 μM TVX or 125 μM DcL + 10 ng/mL TNF
# [8] = WST-1 dose-response cytotoxicity in THP-1 monocytes; assay type: cell-based, human; details: human, THP-1 monocytes
# [9] = system: THP-1 monocytes; test: as above; assay type: cell-based, human; details: for EC50: Homo sapiens, THP-1, 24 h; for EC80 (concentration at which 80% of the cells are still viable): THP-1 monocytes, 24 h, WST-1
# [10] = system: HepG2 cells; test: HepG2 monoculture, increasing drug concentrations with or without TNF, WST-1; assay type: cell-based, human; details: 24 h; for TNF-dependent synergistic effect at increasing drug concentrations: with vs without 10 ng/mL TNF
# [11] = system: HepG2 cells; test: HepG2 viability; assay type: cell-based, human; details: 3-5 × 10^5 THP-1 monocytes, no stimulus; same concentrations
# [12] = system: HepG2 cells; test: HepG2 viability; assay type: cell-based, human; details: 1 μg/mL LPS, 48 h; for enhanced cell death in HepG2 cells on co-exposure with LPS: mono- and co-cultures with THP-1 monocytes, 25 μM TVX/LVX, 20 μM KC/FC; for synergy with LPS in co-culture with THP-1 monocytes: co-culture HepG2 + THP-1 monocytes
smiles,measurement,setting,value
"CC(=O)Oc1ccccc1C(=O)O [ASS, Acetylsalicylic acid]",Cmax,[1],552 µM
same,Cmax,"[2]; commonly recommended therapeutic doses, ref Xu et al. [33]",1.00 µg/mL
same,DILI classification (b) positive or negative for DILI,[3],negative
same,iDILI/non-iDILI,[3],Non-iDILI
"O=C(O)Cc1ccccc1Nc1c(Cl)cccc1Cl [DcL, Diclofenac]","viability at 24 h, 125 μM",[4],~100%
same,EC80 (concentration at which 80% of the cells are still viable),[5],604 µM
same,cytotoxicity / metabolic activity at the used concentration,"[5]; HepG2, same concentration as in co-culture experiments, 24 h",no cytotoxicity; also recorded: not affected
same,EC50,[5],775 µM
same,Cmax,[1],744 µM
same,synergistic effect (enhanced cellular death) on co-exposure with TNF,[6],stronger than in the case of TGZ and KC
same,change of the TNF-dependent synergistic effect by addition of THP-1 monocytes,[6],compensated in the co-culture system
same,alterations in the morphology of HepG2 cell cultures,[7],pronounced hepatocellular injury
same,morphology of HepG2 cells,"[7]; selected concentration (125 μM), drug alone",morphological changes
same,DILI classification (a) LTKB class,[3],Most DILI-concern
same,DILI classification (b) positive or negative for DILI,[3],positive
same,"viability at 24 h, 125 μM",[8],~30%
same,EC50,[9],76 µM
same,EC80 (concentration at which 80% of the cells are still viable),[9],30 µM
same,doses necessary to elicit enhanced toxicities (onset of synergy with TNF),[10]; 10 ng/mL TNF,> 50 µM
same,synergistic effect when co-exposed with TNF,"[10]; drug 50 μM, 10 ng/mL TNF",not able to induce a synergistic effect
same,TNF-dependent synergistic effect at increasing drug concentrations,[10],stronger than those of TGZ and KC
same,influence of higher THP-1 monocyte number on the effect in co-culture,[11],enhanced by higher numbers of immune cells
"OC(Cn1cncn1)(Cn1cncn1)c1ccc(F)cc1F [FC, Fluconazole]",Cmax,[1],882 µM
same,enhanced cell death in HepG2 cells on co-exposure with LPS,[12],did not show any relevant effects
same,DILI classification (a) LTKB class,[3],Most DILI-concern
same,DILI classification (b) positive or negative for DILI,[3],positive
"CC(=O)N1CCN(c2ccc(OCC3COC(Cn4ccnc4)(c4ccc(Cl)cc4Cl)O3)cc2)CC1 (centres unmarked) [KC, Ketoconazole]","viability at 24 h, 20 μM",[4],~80%
same,EC80 (concentration at which 80% of the cells are still viable),[5],18 µM
same,EC50,[5],24 µM
same,Cmax,[1],794 µM
same,synergy with LPS in co-culture with THP-1 monocytes,[12],showed a synergy only in the presence of both
same,enhanced cell death in HepG2 cells on co-exposure with LPS,[12],significantly enhanced cell death
same,Cmax,[2]; ref Huang et al. [35],4.22** μg/mL
same,change of the TNF-dependent synergistic effect by addition of THP-1 monocytes,[6],compensated in the co-culture system
same,FDA status,[3],BBW
same,DILI classification (a) LTKB class,[3],Most DILI-concern
same,iDILI/non-iDILI,[3],iDILI
same,"viability at 24 h, 20 μM",[8],~20%
same,EC50,[9],12 µM
same,EC80 (concentration at which 80% of the cells are still viable),[9],7 µM
same,influence of higher THP-1 monocyte number on the effect in co-culture,[11],enhanced by higher numbers of immune cells
"C[C@H]1COc2c(N3CCN(C)CC3)c(F)cc3c(=O)c(C(=O)O)cn1c23 [LVX, Levofloxacin]",Cmax,[1],1580 µM
same,enhanced cell death in HepG2 cells on co-exposure with LPS,[12],did not show any relevant effects
same,DILI classification (b) positive or negative for DILI,[3],negative
"CN(CCOc1ccc(CC2SC(=O)NC2=O)cc1)c1ccccn1 (centres unmarked) [RGZ, Rosiglitazone]",Cmax,[1],104 µM
same,DILI classification (b) positive or negative for DILI,[3],negative
same,iDILI/non-iDILI,[3],Non-iDILI
same,"cytotoxicity at 24 h, 32 µM",[8],10%
same,influence of higher THP-1 monocyte number on the effect in co-culture,[11],only negligible effects
"Cc1c(C)c2c(c(C)c1O)CCC(C)(COc1ccc(CC3SC(=O)NC3=O)cc1)O2 (centres unmarked) [TGZ, Troglitazone]","viability at 24 h, 32 μM",[4],~85%
same,EC80 (concentration at which 80% of the cells are still viable),[5],34 µM
same,EC50,[5],40 µM
same,Cmax,[1],639 µM
same,synergistic effect (enhanced cellular death) on co-exposure with TNF,[6],synergy
same,FDA status,[3],WDN
same,DILI classification (a) LTKB class,[3],Most DILI-concern
same,DILI classification (b) positive or negative for DILI,[3],positive
same,iDILI/non-iDILI,[3],iDILI
same,"viability at 24 h, 32 μM",[8],~70%
same,EC50,[9],42 µM
same,EC80 (concentration at which 80% of the cells are still viable),[9],27 µM
same,influence of higher THP-1 monocyte number on the effect in co-culture,[11],enhanced at higher THP-1 cell numbers
"N[C@@H]1[C@H]2CN(c3nc4c(cc3F)c(=O)c(C(=O)O)cn4-c3ccc(F)cc3F)C[C@@H]12 [TVX, Trovafloxacin]","viability at 24 h, 25 μM",[4],~92%
same,EC80 (concentration at which 80% of the cells are still viable),[5],100 µM
same,EC50,[5],370 µM
same,Cmax,[1],408 µM
same,synergy with LPS in the HepG2 monoculture,[12]; HepG2 monoculture,showed a synergy
same,synergy with LPS in co-culture with THP-1 monocytes,[12],not intensified by immune cells
same,enhanced cell death in HepG2 cells on co-exposure with LPS,[12],significantly enhanced cell death
same,synergistic effect (enhanced cellular death) on co-exposure with TNF,[6],stronger than in the case of TGZ and KC
same,alterations in the morphology of HepG2 cell cultures,[7],pronounced hepatocellular injury
same,FDA status,[3],WDN
same,iDILI/non-iDILI,[3],iDILI
same,"viability at 24 h, 25 μM",[8],~76%
same,EC50,[9],60 µM
same,EC80 (concentration at which 80% of the cells are still viable),[9],23 µM
same,TNF-dependent synergistic effect at increasing drug concentrations,[10],dose-dependently increased
